Laboratory results as given in patent US12403142B2, “Combination therapy with a phosphoinositide 3-kinase inhibitor with a zinc binding moiety” (Curis, Inc., priority 2018, dated 2025).
pIC50: −log10 of the molar value.

Tests used:
[1] = Genotoxicity testing using the Ames test
tumor tissue = assay: Tumor uptake and pharmacodynamics in xenograft tumor bearing mice; type: in vivo, mouse; conditions: oral or intravenous dosing
[2] = test system: mouse xenograft tumor models; assay: Antitumor activity in mouse xenograft tumor models; type: in vivo; conditions: oral or intravenous administration
[3] = Oral bioavailability in animal models; type: in vivo
A20 syngeneic cells = assay: Compound 1 and anti-PD-1 in the A20 mouse xenograft model; type: in vivo
Text: Animals: Female Balb/c Mice, 4-5 weeks old, fed a regular diet
A20 syngeneic cells were collected from flasks and washed once in RPMI 1640 with no additives. […] Animals were implanted with 2×10^5 cells in the right flank. Dosing commenced when tumors were greater than 100 mm^3 (around day 13) and dosing continued for 21 days or until the tumors reached the limit of 2000 mm^3.
Animals started dosing around day 13 when tumors are fully palpable and measured. Dosing continued until tumors begin to show ulceration that requires sacrifice. Tumors were collected before extensive necrosis to run ELISA and Flow analysis.

[4] = test system: CT26.WT mouse colon carcinoma cells; assay: Compound 1 and anti-PD-1 in the mouse CT26.WT xenograft model; type: in vivo
Protocol: Animals: Female Balb/c Mice, 8 weeks old, fed a high fat diet
CT26.WT cells were collected from flasks and washed once in RPMI 1640 with no additives. […] Mice were grouped once tumors were palpable on day 7 or day 8 and randomized by body weight. Treatment started with antibody and Compound 1 was begun immediately.
Animals were monitored until the dosing commenced and then were measured twice a week during dosing until tumor volume reached protocol limit or ulceration was too severe. Tumor tissue and blood/plasma were collected at the end of the study.

[5] = test system: HDACs (HeLa cell nuclear extracts); assay: HDAC activity assay, Biomol Color de Lys system; type: biochemical; conditions: 25° C. for 1 hour
Protocol: HDAC inhibitory activity was assessed using the Biomol Color de Lys system (AK-500, Biomol, Plymouth Meeting, PA). Briefly, HeLa cell nuclear extracts were used as a source of HDACs. Different concentrations of test compounds were serially diluted in dimethylsulfoxide (DMSO) and added to HeLa cell nuclear extracts in the presence of a colorimetric artificial substrate. Final assay condition contained 50 mM Tris/C1, pH 8.0, 137 mM NaCl, 2.7 mM KCl and 1 mM MgCl2. Reactions were carried in room temperature (25° C.) for 1 hour before addition of developer for termination. Relative enzyme activity was measured in the WALLAC Victor II 1420 microplate reader as fluorescence intensity (excitation: 350-380 nm; emission: 440-460 nm). Data were analyzed using GraphPad Prism (v4.0a) with a sigmoidal dose response curve fitting for IC50 calculation.

[6] = test system: a variety of cancer cell lines; assay: Antiproliferative activity in vitro; type: cell-based

## COc1ccc(-c2nc(N3CCOCC3)c3sc(CN(C)c4ncc(C(=O)NO)cn4)cc3n2)cn1 [Compound 1, N-Hydroxy-2-(((2-(6-methoxypyridin-3-yl)-4-morpholinothieno[3,2-d]pyrimidin-6-yl)methyl)(methyl)amino)pyrimidine-5-carboxamide]
[1]
  safety profile (genotoxicity, Ames test): favorable safety profile
Tumor tissue
  pharmacodynamic activity in tumor tissue: pharmacodynamic activity in tumor tissue
  uptake by the tumor tissue: significant uptake by the tumor tissue
[2]
  antitumor activity: substantial antitumor activity
[3]
  oral bioavailability: significant oral bioavailability
A20 syngeneic cells; A20, female Balb/c mice, Day 13, relative to Vehicle (Cmp 1) + isotype group, Cpd 1 100 mg/kg PO 5+2−, mAb 100 μg BIW
  TGI %* (Day 13): 60%
A20 syngeneic cells; A20 model, Compound 1 100 mg/kg, anti-PD-1 100 ug/mouse
  tumor growth inhibition: significant tumor growth inhibition
[4]; CT26.WT model, Compound 1 50 mg/kg, anti-PD-1 100 ug/mouse
  inhibition of tumor growth: only small inhibition of tumor growth
[4]; CT26.WT, female Balb/c mice, Day 15, relative to Vehicle (Cmp 1) group, Cpd 1 50 mg/kg PO 5+2−, mAb 100 μg IP BIW
  TGI %* (Day 15): 3%
[5]
  pIC50: > 7.00
[6]
  antiproliferative activity: potent antiproliferative activity
